# Tests used:
# active RON (pTyr-RON) = experiment: Western blotting of active RON in KM12C; type: cell-based, human
# Description: The cell killing efficacy of Example 18 and Comparative Example 1 was analyzed, and then the cells were collected. Western blotting was performed to identify inhibitory capacity of Example 18 on active RON. RIPA Lysis Buffer (T&I) was added to the respective cells so as to achieve lysis. Then, BCA kit (Pierce) was used to quantify proteins. The proteins were loaded onto 6% SDS-polyacrylamide with a protein concentration of 40 μg, and electrophoresis was performed at 125 V.
# Subsequently, the proteins were reacted with primary antibody (active RON, beta actin), which was diluted 1:1,000 in 5% non-fat skim milk-TBST solution, at 4° C. for 24 hours or 48 hours. Then, washing with TBST was performed three times. The resultant was reacted with anti-rabbit and anti-mouse IgG conjugated horseradish peroxidase (HRP) secondary antibody, which was diluted at 1:1,000, at room temperature for 2 hours. Then, washing with TBST was washed three times. Subsequently, the membrane was treated with the ECL solution (GE Healthcare), and developed by exposure to an X-ray film. Then, the bands were checked.
# [1] = test system: colon cancer patient-derived cancer tissue (RON mutant: Δ160); experiment: Efficacy in animal model transplanted with colon cancer patient tissue, 50 mpk; type: in vivo, BALB/c nude mice; conditions: 50 mpk oral, daily for 4 weeks
# Description: 5-week-old female BALB/c nude mice were purchased and acclimatized for 1 week. Then, colon cancer patient-derived cancer tissue was transplanted into the right dorsal side of the mice. Example 18 was orally administered when the tumor reached a size of about 100 mm^3. The drug was administered once a day for 4 weeks, and tumor size and body weight were measured twice a week to perform comparative analysis. After completion of the drug administration, the experimental animals were euthanized, and then the tumors were extracted and weighed to perform comparative analysis.
# As a result, it was identifiable that tumor growth is inhibited in a case where Example 18 is administered to an animal model (RON mutant: Δ160) into which tumor cells in colon cancer patients have been transplanted. The drug was orally administered on a daily basis, and the dose used was 50 mpk. As a result of drug administration for 4 weeks, it was identified that tumor growth is inhibited by 80% or more (FIG. 18). In addition, after completion of the drug administration, the tumor tissues were extracted and weighed to perform comparative analysis. […] The lower pictures of FIG. 19 show tumors extracted from representative individuals of the respective groups.
# [2] = test system: KM12C cell line carrying RON mutant (Δ160); experiment: Action mechanism in KM12C, Western blotting of related proteins; type: cell-based, human; conditions: 1 μM, 5 μM, 48 hours
# Description: KM12C cell line was seeded at 5×10^5 cells onto a 100-mm plate. Then, after 24 hours, the cells were subjected to treatment with Example 18 at respective concentrations (1 μM, 5 μM) for 48 hours. After 48 hours, the cells and cell suspensions were collected (1,500 rpm, 3 minutes), and changes in expression of related proteins were checked with Western blotting. RIPA Lysis Buffer (T&I) was added to the respective cells so as to achieve lysis. Then, BCA kit (Pierce) was used to quantify proteins. Then, the proteins were loaded onto 8% SDS-polyacrylamide, and electrophoresis was performed at 125 V.
# Then, blocking was performed with 5% non-fat skim milk-TBST solution for 1 hour. Subsequently, the proteins were reacted with primary antibodies, which were diluted 1:1,000 in 5% non-fat skim milk-TBST solution, at 4° C. for 24 hours or 48 hours. Then, washing with TBST was performed three times. The resultant was reacted with anti-rabbit and anti-mouse IgG conjugated HRP secondary antibodies, which were diluted at 1:1,000, at room temperature for 2 hours. Then, washing with TBST was performed three times. Subsequently, the membrane was treated with the ECL solution (GE Healthcare), and developed by exposure to an X-ray film. Then, the bands were checked.
# [3] = test system: colon cancer patient-derived cell line in which RON is not expressed; experiment: Cell death in colon cancer patient-derived cell line, active RON negative (immunofluorescence); type: cell-based, human; conditions: 5 ug, 48 hours, KRAS normal
# Description: The following condition and methods were used to perform the present experiment. […] Then, the respective cell lines were seeded at 5×10^5 cells onto 24-well plates, in which one sterile 12 mmΦ microscope cover glass was placed on each well, and incubated. The respective colon cancer patient-derived cell lines under incubation were subjected to treatment with Example 18 and Comparative Example 1, respectively, at 5 ug, and then incubated for 48 hours. Each incubated plate was washed twice with PBS, and then fixed with 100% Me-OH at room temperature for 5 minutes. The Me-OH was removed, and washing with PBS was performed three times for 5 minutes each. Then, 100 ul of 0.1% Triton X-100 (in PBS) was dispensed thereinto and permeabilization was allowed to occur for 5 minutes. Washing with PBS was performed three times for 5 minutes each, and then PBS was added thereto to prevent drying. Parafilm was attached to the 24-well plate cover, and then PBS-T (PBS+0.1% Tween 20) containing 3% BSA was dropped by 20 μl onto the parafilm. […] Then, washing with PBS-T (PBS+0.1% Tween 20) was performed twice, and a fluorescence microscope was used to identify the staining. […] Then, the cover glass was placed thereon, and a fluorescence microscope was used to take a fluorescence image.
smiles,measurement,setting,value
"CCOc1ccn(-c2ccc(F)cc2)c(=O)c1C(=O)Nc1ccc(Oc2ccnc3cc(-c4ccc(CN5CCOCC5)cn4)sc23)c(F)c1.Cl [Example 18, 4-ethoxy-N-[3-fluoro-4-({2-[5-(morpholinomethyl)pyridin-2-yl]thieno[3,2-b]pyridine-7-yl}oxy)phenyl]-1-(4-fluorophenyl)-2-oxo-1,2-dihydropyridine-3-carboxamide hydrochloride]",expression of active RON (Western blotting),active RON (pTyr-RON),decreases
same,tumor growth inhibition (extracted tumor weight) compared with the vehicle,[1],about 83%
same,tumor growth inhibition (tumor size),[1],≥ 80%
same,active RON (Western blotting),[2],decreases
same,"p-ERK, p-Src, p-Akt, and p-Gab1 (Western blotting)",[2],decrease
same,reactivity to drug treatment (cell death),[3],no reactivity
